From patent US12649765B2 (Arizona Board of Regents on Behalf of the University of …, priority 2020, dated 2026) come the findings set out here.

Entries after “also recorded” stand apart in the source; their conditions may differ. Where a SMILES comes first, the peptide text is derived from it. Bridges are numbered along the chain shown (N, C = ends). [ ]: non-standard residue; d: D form. The star is where a group is joined. X1 = OC[C@H]1OC(*)[C@H](O)[C@@H](O)[C@@H]1O; Dap = NC[C@H](N)C(=O)O

Assay [1] has as its target human Mu Opioid Receptor (MOR) (Homo sapiens, UniProt P35372). Kind of assay: biochemical. Type of assay: binding.
A further assay concerns the target OTR (Homo sapiens, UniProt P30559). Kind of assay: EC50 (nM) | OTR. The text has this: Table printed on a drawing sheet, FIG. 6
The patent's description of the figure: FIG. 6 is a table showing EC50 for OXTR agonistic activity for some of the representative cyclic oligopeptides of the invention.
First copying reader's note: Each value cell holds the EC50 together with its ± error; NA is not defined on the sheet.

Assay [2] in a line: 52° C. warm water tail flick assay, iv injection. Type of assay: in vivo, CD-1 mice. Particulars: 10 mg/kg iv; for anti-nociception in tail flick assay: 10 second cutoff, male and female CD-1 mice.
The nature of assay [3]: 52° C. warm water tail flick assay, icv injection. Type of assay: in vivo. Particulars: 10 nmol icv, male and female CD-1 mice. For orientation: In hot-plate and tail-flick tests a longer latency is read as antinociception.
Assay [4] in a line: Paclitaxel-induced CIPN, Von Frey filaments mechanical threshold, icv injection. The assay is classed as in vivo, CD-1 mice. Particulars: 10 nmol icv on day 8, 2 mg/kg paclitaxel on days 1, 3, 5, 7.

Chain of human Mu Opioid Receptor (MOR) (P35372 whole entry): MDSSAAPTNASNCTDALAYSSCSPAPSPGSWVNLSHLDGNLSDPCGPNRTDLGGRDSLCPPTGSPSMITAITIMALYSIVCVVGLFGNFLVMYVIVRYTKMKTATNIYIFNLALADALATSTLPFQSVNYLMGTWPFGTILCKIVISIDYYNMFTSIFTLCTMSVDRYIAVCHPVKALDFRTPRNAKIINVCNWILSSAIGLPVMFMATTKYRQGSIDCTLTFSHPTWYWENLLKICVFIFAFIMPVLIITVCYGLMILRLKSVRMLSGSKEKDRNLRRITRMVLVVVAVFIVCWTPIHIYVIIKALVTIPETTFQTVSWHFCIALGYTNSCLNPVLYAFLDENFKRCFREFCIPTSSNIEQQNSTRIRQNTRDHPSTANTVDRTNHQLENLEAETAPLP
Chain of OTR (P30559 whole entry, looked up): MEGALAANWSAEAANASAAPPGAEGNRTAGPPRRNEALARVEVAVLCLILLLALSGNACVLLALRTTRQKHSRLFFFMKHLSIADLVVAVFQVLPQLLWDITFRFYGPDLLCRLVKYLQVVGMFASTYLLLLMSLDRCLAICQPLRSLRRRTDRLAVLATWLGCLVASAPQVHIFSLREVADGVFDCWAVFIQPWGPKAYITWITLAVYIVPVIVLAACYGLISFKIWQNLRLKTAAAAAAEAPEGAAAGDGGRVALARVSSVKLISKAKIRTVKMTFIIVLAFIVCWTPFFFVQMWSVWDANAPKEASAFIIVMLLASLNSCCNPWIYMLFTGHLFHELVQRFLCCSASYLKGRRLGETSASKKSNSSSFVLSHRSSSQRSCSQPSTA

Take `CC[C@H](C)[C@@H]1NC(=O)[C@H](Cc2ccc(O)cc2)NC(=O)[C@@H](N)CCC(=O)NC[C@@H](C(=O)N2CCC[C@H]2C(=O)N[C@@H](CC(C)C)C(=O)NCC(N)=O)NC(=O)[C@H](CC(N)=O)NC(=O)[C@H](CCC(N)=O)NC1=O` [2LS118-2, Glu-Tyr-Ile-Gln-Asn-Dap-Pro-Leu-Gly-CONH2 (SEQ ID NO: 6)] (H-EYIQN[Dap]PLG-NH2; lactam 1-6): in assay [1], the IC50 (as a rule, the concentration needed to halve the response being measured) is more than 2500 nM and the Ki – broadly, the equilibrium dissociation constant of an inhibitor or competing ligand from its target – is more than 2500 nM. Further, at OTR, the midpoint of the response, the EC50, lay at 7040 ± 2960 nM.

With `CC[C@H](C)[C@@H]1NC(=O)[C@H](Cc2ccc(O)cc2)NC(=O)[C@@H](N)CNC(=O)C[C@@H](C(=O)N2CCC[C@H]2C(=O)N[C@@H](CC(C)C)C(=O)NCC(N)=O)NC(=O)[C@H](CC(N)=O)NC(=O)[C@H](CCC(N)=O)NC1=O` [2LS118-3, Dap-Tyr-Ile-Gln-Asn-Asp-Pro-Leu-Gly-CONH2 (SEQ ID NO: 7)] (H-[Dap]YIQNDPLG-NH2; lactam 1-6), in assay [1], the IC50 was more than 2500 nM and the Ki was more than 2500 nM.

On to `CC[C@H](C)[C@@H]1NC(=O)[C@H](Cc2ccc(O)cc2)NC(=O)[C@@H](N)CSSC[C@@H](C(=O)N2CCC[C@H]2C(=O)N[C@@H](CC(C)C)C(=O)NCC(N)=O)NC(=O)[C@H](CC(N)=O)NC(=O)[C@H](CCC(N)=O)NC1=O` [native OT, Cys-Tyr-Ile-Gln-Asn-Cys-Pro-Leu-Gly-CONH2 (SEQ ID NO: 1), reference compound], for which the “anti-nociception in tail flick assay” value in assay [2] was “no anti-nociception; also recorded: no efficacy”; in assay [2] (listed as Native OT) it was “no effect”; in assay [3] it was “the same degree and duration of anti-nociceptive activity; also recorded: substantially equivalent anti-nociception”.

As for `CC[C@H](C)[C@@H]1NC(=O)[C@H](Cc2ccc(O)cc2)NC(=O)[C@@H](N)CC(=O)NC[C@@H](C(=O)N2CCC[C@H]2C(=O)N[C@@H](CC(C)C)C(=O)N[C@@H](COC2O[C@H](CO)[C@@H](O)[C@H](O)[C@H]2O)C(N)=O)NC(=O)[C@H](CC(N)=O)NC(=O)[C@H](CCC(N)=O)NC1=O` (stereo partly drawn) [2LS118-4, Asp-Tyr-Ile-Gln-Asn-Dap-Pro-Leu-SerGlc-CONH2 (SEQ ID NO: 8)] (H-DYIQN[Dap]PLS(X1)-NH2; lactam 1-6; N-terminus assumed), in assay [2], the “peak effect in tail flick assay” value is “significantly higher peak effect than 2LS118-1” and the “anti-nociception in tail flick assay” value was “near-maximal efficacy comparable to 10 mg/kg morphine; also recorded: almost half to full maximal efficacy vs. morphine”. The “anti-nociception in tail flick assay” value in assay [3] is “the same degree and duration of anti-nociceptive activity; also recorded: substantially equivalent anti-nociception”. Moreover, the “anti-nociception in CIPN model (mechanical threshold)” value in assay [4] is recorded as “high anti-nociceptive efficacy; also recorded: substantially equivalent anti-nociception”.

In assay [1], `CC[C@H](C)[C@@H]1NC(=O)[C@H](Cc2ccc(O)cc2)NC(=O)[C@@H](N)CC(=O)NC[C@@H](C(=O)N2CCC[C@H]2C(=O)N[C@@H](CC(C)C)C(=O)NCC(N)=O)NC(=O)[C@H](CC(N)=O)NC(=O)[C@H](CCC(N)=O)NC1=O` [2LS118-1, Asp-Tyr-Ile-Gln-Asn-Dap-Pro-Leu-Gly-CONH2 (SEQ ID NO: 5)] (H-DYIQN[Dap]PLG-NH2; lactam 1-6) had an IC50 of more than 2500 nM and a Ki of more than 2500 nM. Also, on OTR, the EC50 – broadly, the concentration at which the effect is half-maximal – was 3760 ± 3120 nM.
